Results reported in patent publication US4027039A (priority 1975, dated 1977).
Several values for one entry are separate records, joined by “and”; a condition that tells them apart may be missing. Equal values may be shown once. Read-outs that look alike come from different tables or passages of the source.

How the values were obtained:
Vaccinia virus = assay type: in vivo, rabbit; conditions: rabbit, in vivo; thiosemicarbazone
viral infections = experiment: Antiviral screening in animals, general statements; conditions: mouse, in vivo
Columbia SK Polio virus = assay type: in vivo, mouse
Influenza PR 8 virus [1] = experiment: Influenza PR 8 in mice, intravenous (Table 31); assay type: in vivo, mouse; conditions: total dose .2 μg
Influenza PR 8 virus [2] = experiment: Influenza PR 8 in mice, subcutaneous; late read day 6 (Table 37), 8 (Table 47); assay type: in vivo, mouse
Vaccinia IHD virus = assay type: in vivo, mouse
Herpes virus [3] = experiment: Herpes virus in chicken eggs, single dose 24 hours pre-infection; assay type: in vivo, chick embryo
Influenza PR 8 virus [4] = experiment: Influenza PR 8 in mice, oral; schedule by table; late read day 6 (Table 37), 7 (33, 36), 8 (32, 35, 47), 10 (38); control fraction 18/20 (Table 32), 19/20 (Table 35), else 100%; assay type: in vivo, mouse
Influenza PR 8 virus [5] = experiment: Influenza PR 8 in mice, drug in drinking water (Table 34); assay type: in vivo, mouse
Herpes virus [6] = system: Herpes virus
[7] = total dose .000005 μg, thiosemicarbazone
[8] = total dose .00005 μg, listed as 2-butanone thiosemicarbazone
[9] = total dose .00005 μg, thiosemicarbazone

In the case of `CCC(C)=NNC(N)=S` [2-Butanone, thiosemicarbazone, 2-butanone, thiosemicarbazone], the “effect on pox formation” value (Vaccinia virus) is reported as “variable”, the activity in words (viral infections) is reported as “one of the most active compounds” and the “No. animals surviving after 5 days” value (Columbia SK Polio virus; total dose 3 ng) is reported as 7. For the same compound, the Survivors (Columbia SK Polio virus; total dose 3 ng) was 0, the “No. animals surviving after 5 days” value (Columbia SK Polio virus; total dose 30 ng) was 8 and the Survivors (Columbia SK Polio virus; total dose 30 ng) was 0. For the same compound, the “No. animals surviving after 5 days” value (Columbia SK Polio virus; total dose 300 ng) was 6, the Survivors (Columbia SK Polio virus; total dose 300 ng) was 1 and the “No. animals surviving when 18/20 of controls are dead” value (Influenza PR 8 virus [1]) was 2. The Survivors (Influenza PR 8 virus [1]) was 2, the “No. animals surviving after 6-8 days” value (Influenza PR 8 virus [2]; total dose .000005 μg) was 2 and the Survivors (Influenza PR 8 virus [2]; total dose .000005 μg) was 0. The Survivors (Influenza PR 8 virus [2]; total dose .00005 μg) was 0, the “No. animals surviving after 6-8 days” value (Influenza PR 8 virus [2]; total dose .0005 μg) was 1 and the Survivors (Influenza PR 8 virus [2]; total dose .0005 μg) was 1. The Survivors (Influenza PR 8 virus [2]; total dose .005 μg) was 0, the “Statistical Significance of Tail Lesions” value (Vaccinia IHD virus; 10 ng, day 5) was “< .05” and the “Statistical Significance of Tail Lesions” value (Vaccinia IHD virus; 10 ng, day 6) was “< .01”. The “Statistical Significance of Tail Lesions” value (Vaccinia IHD virus; 10 ng, day 7) was “< .05”, the “Statistical Significance of Tail Lesions” value (Vaccinia IHD virus; 10 ng, day 10) was “< .01” and the “Statistical Significance of Tail Lesions” value (Vaccinia IHD virus; 10 ng, day 11) was “< .01”. For the same compound, the “Statistical Significance of Tail Lesions” value (Vaccinia IHD virus; 10 ng, day 12) was “< .01”, the “Statistical Significance of Tail Lesions” value (Vaccinia IHD virus; 10 ng, day 14) was “< .01” and the “Statistical Significance of Tail Lesions” value (Vaccinia IHD virus; 10 ng, day 17) was “< .01”. For the same compound, the “Statistical Significance of Tail Lesions” value (Vaccinia IHD virus; 10 ng, day 21) was “< .01”, the “Statistical Significance of Tail Lesions” value (Vaccinia IHD virus; 1 μg, day 5) was “< .01” and the “Statistical Significance of Tail Lesions” value (Vaccinia IHD virus; 1 μg, day 6) was “< .01”. The “Statistical Significance of Tail Lesions” value (Vaccinia IHD virus; 1 μg, day 7) was “< .05”, the “Statistical Significance of Tail Lesions” value (Vaccinia IHD virus; 1 μg, day 8) was “< .01” and the “Statistical Significance of Tail Lesions” value (Vaccinia IHD virus; 1 μg, day 10) was “< .01”. The “Statistical Significance of Tail Lesions” value (Vaccinia IHD virus; 1 μg, day 11) was “< .01”, the “Statistical Significance of Tail Lesions” value (Vaccinia IHD virus; 1 μg, day 12) was “< .01” and the “Statistical Significance of Tail Lesions” value (Vaccinia IHD virus; 1 μg, day 14) was “< .01”. For the same compound, the “Statistical Significance of Tail Lesions” value (Vaccinia IHD virus; 1 μg, day 17) was “< .01”, the “Statistical Significance of Tail Lesions” value (Vaccinia IHD virus; 1 μg, day 21) was “< .01” and the “Statistical Significance of Tail Lesions” value (Vaccinia IHD virus; 10 [μg], day 6) was “< .01”. The “Statistical Significance of Tail Lesions” value (Vaccinia IHD virus; 10 [μg], day 7) was “< .05”, the “Statistical Significance of Tail Lesions” value (Vaccinia IHD virus; 10 [μg], day 8) was “< .05” and the “Statistical Significance of Tail Lesions” value (Vaccinia IHD virus; 10 [μg], day 10) was “< .01”. The “Statistical Significance of Tail Lesions” value (Vaccinia IHD virus; 10 [μg], day 11) was “< .05”, the “Statistical Significance of Tail Lesions” value (Vaccinia IHD virus; 10 [μg], day 12) was “< .05” and the “Statistical Significance of Tail Lesions” value (Vaccinia IHD virus; 10 [μg], day 14) was “< .05”. The “Statistical Significance of Tail Lesions” value (Vaccinia IHD virus; 10 [μg], day 17) was “< .01”, the “Statistical Significance of Tail Lesions” value (Vaccinia IHD virus; 10 [μg], day 21) was “< .01” and the “Statistical Significance of Tail Lesions” value (Vaccinia IHD virus; 100 [ng], day 5) was “< .05”. The “Statistical Significance of Tail Lesions” value (Vaccinia IHD virus; 100 [ng], day 6) was “< .01”, the “Statistical Significance of Tail Lesions” value (Vaccinia IHD virus; 100 [ng], day 7) was “< .01” and the “Statistical Significance of Tail Lesions” value (Vaccinia IHD virus; 100 [ng], day 8) was “< .01”. The “Statistical Significance of Tail Lesions” value (Vaccinia IHD virus; 100 [ng], day 10) was “< .01”, the “Statistical Significance of Tail Lesions” value (Vaccinia IHD virus; 100 [ng], day 11) was “< .01” and the “Statistical Significance of Tail Lesions” value (Vaccinia IHD virus; 100 [ng], day 12) was “< .01”. The “Statistical Significance of Tail Lesions” value (Vaccinia IHD virus; 100 [ng], day 14) was “< .01”, the “Statistical Significance of Tail Lesions” value (Vaccinia IHD virus; 100 [ng], day 17) was “< .01” and the “Statistical Significance of Tail Lesions” value (Vaccinia IHD virus; 100 [ng], day 21) was “< .01”. The activity in words (Vaccinia IHD virus; mouse, in vivo) was “most active of the compounds tested”, the “Deaths on day 1” value (Herpes virus [3]; 2 μg) was 1 and the “Deaths on day 2” value (Herpes virus [3]; 2 μg) was 5. For the same compound, the “Deaths on day 3” value (Herpes virus [3]; 2 μg) was 3, the “No. dying 5-22 day” value (Herpes virus [3]; 2 μg) was 2 and the No. hatched (Herpes virus [3]; 2 μg) was 1. For the same compound, the “No. living longer than controls” value (Herpes virus [3]; 2 μg) was 3, the “Total deaths, 4th day” value (Herpes virus [3]; 2 μg) was 9 and the “Deaths on day 2” value (Herpes virus [3]; 20 μg) was 5. For the same compound, the “Deaths on day 3” value (Herpes virus [3]; 20 μg) was 1, the “Deaths on day 4” value (Herpes virus [3]; 20 μg) was 2 and the “No. dying 5-22 day” value (Herpes virus [3]; 20 μg) was 1. The “No. living longer than controls” value (Herpes virus [3]; 20 μg) was 4, the “Total deaths, 4th day” value (Herpes virus [3]; 20 μg) was 8 and the “Deaths on day 1” value (Herpes virus [3]; .00005 μg) was 2. For the same compound, the “Deaths on day 2” value (Herpes virus [3]; .00005 μg) was 4, the “Deaths on day 3” value (Herpes virus [3]; .00005 μg) was 5 and the “No. dying 5-22 day” value (Herpes virus [3]; .00005 μg) was 0. The No. hatched (Herpes virus [3]; .00005 μg) was 1, the “No. living longer than controls” value (Herpes virus [3]; .00005 μg) was 1 and the “Total deaths, 4th day” value (Herpes virus [3]; .00005 μg) was 11. The “Deaths on day 1” value (Herpes virus [3]; .0005 μg) was 1, the “Deaths on day 2” value (Herpes virus [3]; .0005 μg) was 5 and the “Deaths on day 3” value (Herpes virus [3]; .0005 μg) was 3. For the same compound, the “Deaths on day 4” value (Herpes virus [3]; .0005 μg) was 1, the “No. dying 5-22 day” value (Herpes virus [3]; .0005 μg) was 0 and the No. hatched (Herpes virus [3]; .0005 μg) was 1. For the same compound, the “No. living longer than controls” value (Herpes virus [3]; .0005 μg) was 2, the “Total deaths, 4th day” value (Herpes virus [3]; .0005 μg) was 10 and the “Deaths on day 1” value (Herpes virus [3]; .005 μg) was 2. The “Deaths on day 2” value (Herpes virus [3]; .005 μg) was 4, the “Deaths on day 3” value (Herpes virus [3]; .005 μg) was 2 and the “Deaths on day 4” value (Herpes virus [3]; .005 μg) was 3. For the same compound, the “No. dying 5-22 day” value (Herpes virus [3]; .005 μg) was 0, the “No. living longer than controls” value (Herpes virus [3]; .005 μg) was 1 and the “Total deaths, 4th day” value (Herpes virus [3]; .005 μg) was 11. For the same compound, the “Deaths on day 1” value (Herpes virus [3]; .05 μg) was 2, the “Deaths on day 2” value (Herpes virus [3]; .05 μg) was 6 and the “Deaths on day 3” value (Herpes virus [3]; .05 μg) was 3. For the same compound, the “No. dying 5-22 day” value (Herpes virus [3]; .05 μg) was 1, the “No. living longer than controls” value (Herpes virus [3]; .05 μg) was 1 and the “Total deaths, 4th day” value (Herpes virus [3]; .05 μg) was 11. For the same compound, the “Deaths on day 1” value (Herpes virus [3]; .5 μg) was 1, the “Deaths on day 2” value (Herpes virus [3]; .5 μg) was 3 and the “Deaths on day 3” value (Herpes virus [3]; .5 μg) was 6. The “Deaths on day 4” value (Herpes virus [3]; .5 μg) was 2, the “No. dying 5-22 day” value (Herpes virus [3]; .5 μg) was 0 and the “No. living longer than controls” value (Herpes virus [3]; .5 μg) was 0. The “Total deaths, 4th day” value (Herpes virus [3]; .5 μg) was 12, the Total no. hatched (Herpes virus [3]; all doses) was 5 and the “Total no. living longer than controls” value (Herpes virus [3]; all doses) was 12. The “No. animals surviving after 6-10 days” value (Influenza PR 8 virus [4]; total dose .000005 μg) was 6, the Survivors (Influenza PR 8 virus [4]; total dose .000005 μg) was 0 and the “No. animals surviving after 6-10 days” value (Influenza PR 8 virus [4]; [7]) was 4. For the same compound, the “No. animals surviving when 100% (or given fraction) of controls are dead” value (Influenza PR 8 virus [4]; [7]) was 2, the Survivors (Influenza PR 8 virus [4]; [7]) was 1 and the Survivors (Influenza PR 8 virus [4]; total dose .00005 μg) was 4. For the same compound, the “No. animals surviving after 6-10 days” value (Influenza PR 8 virus [4]; [8]) was 5, the Survivors (Influenza PR 8 virus [4]; [8]) was 2 and the “No. animals surviving after 6-10 days” value (Influenza PR 8 virus [4]; [9]) was 8 and 4. The “No. animals surviving when 100% (or given fraction) of controls are dead” value (Influenza PR 8 virus [4]; [9]) was 4, the “No. animals surviving after 6-10 days” value (Influenza PR 8 virus [4]; total dose .0005 μg) was 2 and the “No. animals surviving when 100% (or given fraction) of controls are dead” value (Influenza PR 8 virus [4]; total dose .0005 μg) was 1. The Survivors (Influenza PR 8 virus [4]; total dose .0005 μg) was 1, the “No. animals surviving after 6-10 days” value (Influenza PR 8 virus [4]; total dose .005 μg) was 2 and the “No. animals surviving when 100% (or given fraction) of controls are dead” value (Influenza PR 8 virus [4]; total dose .005 μg) was 1. It also gave a Survivors (Influenza PR 8 virus [4]; total dose .005 μg) of 1, a Survivors (Influenza PR 8 virus [4]; total dose .005 μg, thiosemicarbazone) of 0 and a Survivors (Influenza PR 8 virus [5]; 0.5 Mg/ml in water, 24 h pre and 24 h post) of 1. It also gave a Survivors (Influenza PR 8 virus [5]; 10 Mg/ml in water, 24 h pre and 24 h post) of 2, a Survivors (Influenza PR 8 virus [5]; 24 h post-infection only, first of two printed columns) of 0 and a Survivors (Herpes virus [6]; mouse, in vivo) of 2. For the same compound, the “No. animals surviving after 6-9 days” value (Herpes virus [6]; total dose .000005 μg) was 1, the “No. animals surviving when 100% (or given fraction) of controls are dead” value (Herpes virus [6]; total dose .000005 μg) was 0 and the Survivors (Herpes virus [6]; total dose .000005 μg) was 0. The “No. animals surviving after 6-9 days” value (Herpes virus [6]; total dose .00005 μg) was 8, the “No. animals surviving when 100% (or given fraction) of controls are dead” value (Herpes virus [6]; total dose .00005 μg) was 4 and the “No. animals surviving after 6-9 days” value (Herpes virus [6]; total dose .0005 μg) was 6. For the same compound, the “No. animals surviving when 100% (or given fraction) of controls are dead” value (Herpes virus [6]; total dose .0005 μg) was 5, the Survivors (Herpes virus [6]; total dose .0005 μg) was 4 and the “No. animals surviving after 6-9 days” value (Herpes virus [6]; total dose .005 μg) was 4. The “No. animals surviving when 100% (or given fraction) of controls are dead” value (Herpes virus [6]; total dose .05 μg) was 0 and the Survivors (Herpes virus [6]; total dose .05 μg) was 0.
